IC50 data for 86 compounds are collected here from ChEMBL document CHEMBL4304757, “Synthetic heterocyclic candidates as promising α-glucosidase inhibitors: An overview” (Eur J Med Chem, 2019).

Structures are written as SMILES.

Target in the first experiment: not listed separately
Nature of the experiment: Inhibition of yeast alpha-glucosidase using p-nitrophenyl-alpha-d-glucopyranoside as substrate preincubated for 10 mins followed by substrate addition measured after 30 mins. Also noted: species or system Saccharomyces cerevisiae.
In general, IC50 refers to the concentration at which inhibition is half-maximal. Low readings indicate higher potency, high ones lower potency. `Cc1cc2nc(-c3ccc(C(=O)NNC(=S)Nc4cccc(Br)c4)cc3)[nH]c2cc1C` yielded an IC50 of 35 to 297 µM.

`COc1ccc(-c2nn(-c3ccccc3)cc2-c2nc(-c3ccccc3)c(-c3ccccc3)[nH]2)cc1` registered an IC50 of 2.7 to 23 µM. On the same count and under the same terms, the figure for `COc1cccc(NC(=S)NNC(=O)c2ccc(-c3nc4cc(C)c(C)cc4[nH]3)cc2)c1` is 35 to 297 µM; for `Brc1ccc(-c2nn(-c3ccccc3)cc2-c2nc(-c3ccccc3)c(-c3ccccc3)[nH]2)cc1` it is 2.7 to 23 µM; for `Cc1cc2nc(-c3ccc(C(=O)N/N=C/c4ccncc4)cc3)[nH]c2cc1C` it is 8.4 to 179 µM. In the case of `Cc1cc2nc(-c3ccc(C(=O)N/N=C/c4ccc(O)cc4)cc3)[nH]c2cc1C`, the IC50 was 8.4 to 179 µM. On the same count and under the same terms, to `COc1ccc(/C=N/NC(=O)c2ccc(-c3nc4cc(C)c(C)cc4[nH]3)cc2)cc1OC` belongs 8.4 to 179 µM; to `c1ccc(-c2ccc(-c3nn(-c4ccccc4)cc3-c3nc(-c4ccccc4)c(-c4ccccc4)[nH]3)cc2)cc1`, 2.7 to 23 µM. Take `Cc1cc2nc(-c3ccc(C(=O)NNC(=S)Nc4ccc(C(F)(F)F)cc4)cc3)[nH]c2cc1C`: the 50% inhibitory concentration (IC50) lay within 35 to 297 µM. On the same count and under the same terms, the figure for `CCCn1c(-c2cn(-c3ccccc3)nc2-c2cc3ccccc3oc2=O)nc(-c2ccccc2)c1-c1ccccc1` is 2.5 to 46 µM; for `Cc1cc2nc(-c3ccc(C(=O)N/N=C/c4ccccc4C)cc3)[nH]c2cc1C` it is 8.4 to 179 µM; for `Cc1cc2nc(-c3ccc(C(=O)N/N=C/c4ccc(O)cc4O)cc3)[nH]c2cc1C` it is 8.4 to 9.9 µM. In the case of `Cc1cc2nc(-c3ccc(C(=O)N/N=C/c4ccccc4O)cc3)[nH]c2cc1C`, the IC50 was in the range of 8.4 to 179 µM. In turn, `Cc1cc2nc(-c3ccc(C(=O)NNC(=S)Nc4cccc([N+](=O)[O-])c4)cc3)[nH]c2cc1C` came in with an IC50 of 35 to 297 µM. With `COc1cccc(/C=N/NC(=O)c2ccc(-c3nc4cc(C)c(C)cc4[nH]3)cc2)c1`, the IC50 is 8.4 to 179 µM. With `Cc1ccc(NC(=S)NNC(=O)c2ccc(-c3nc4cc(C)c(C)cc4[nH]3)cc2)cc1`, the IC50 lay in the range of 35 to 297 µM. Regarding `Cc1cc(C)cc(-n2c(-c3cn(-c4ccccc4)nc3-c3cc4cc(Br)ccc4oc3=O)nc(-c3ccccc3)c2-c2ccccc2)c1`, the IC50 lay in the range of 2.5 to 46 µM. On the same count and under the same terms, the figure for `Cc1ccc(-n2c(-c3cn(-c4ccccc4)nc3-c3cc4cc(Br)ccc4oc3=O)nc(-c3ccccc3)c2-c2ccccc2)cc1` is 2.5 to 46 µM. For the compound `O=c1oc2ccccc2cc1-c1nn(-c2ccccc2)cc1-c1nc(-c2ccccc2)c(-c2ccccc2)[nH]1`, the midpoint of inhibition, the IC50, lay at 2.7 µM. The same measure, in the same setting: to `Cc1cc2nc(-c3ccc(C(=O)NNC(=S)Nc4ccc(Br)cc4)cc3)[nH]c2cc1C` belongs 35 to 297 µM; to `O=[N+]([O-])c1ccc(-c2nn(-c3ccccc3)cc2-c2nc(-c3ccccc3)c(-c3ccccc3)[nH]2)cc1`, 2.7 to 23 µM; to `COc1ccc(/C=N/NC(=O)c2ccc(-c3nc4cc(C)c(C)cc4[nH]3)cc2)c(O)c1`, 8.4 to 9.9 µM. `O=c1oc2ccccc2cc1-c1nn(-c2ccccc2)cc1-c1nc(-c2ccccc2)c(-c2ccccc2)n1-c1ccc(Br)cc1`: the IC50 was in the range of 2.5 to 46 µM. As for `Cc1cc2nc(-c3ccc(C(=O)N/N=C/c4cccc(F)c4)cc3)[nH]c2cc1C`, the IC50 fell in the range of 8.4 to 179 µM.

The compound `COc1ccc(/C=N/NC(=O)c2ccc(-c3nc4cc(C)c(C)cc4[nH]3)cc2)cc1O` returned an IC50 of 8.4 to 179 µM. The same measure, in the same setting: the figure for `Cc1cc2nc(-c3ccc(C(=O)N/N=C/c4cccc(Cl)c4)cc3)[nH]c2cc1C` is 8.4 to 179 µM; for `Cc1nn(-c2ccc(Nc3cccc(Cl)c3)nn2)c(C)c1[N+](=O)[O-]` it is 19 µM; for `O=[N+]([O-])c1ccc(-n2cc(-c3nc(-c4ccccc4)c(-c4ccccc4)[nH]3)c(-c3ccccc3)n2)cc1` it is 2.7 to 23 µM. Compound `Cc1cc2nc(-c3ccc(C(=O)N/N=C/c4ccco4)cc3)[nH]c2cc1C` returned an IC50 of 8.4 to 179 µM. `Cc1cc2nc(-c3ccc(C(=O)NNC(=S)Nc4ccc([N+](=O)[O-])cc4)cc3)[nH]c2cc1C` showed an IC50 of 35 µM. This counts as double-digit micromolar.

In turn, `O=c1oc2ccc(Br)cc2cc1-c1nn(-c2ccccc2)cc1-c1nc(-c2ccccc2)c(-c2ccccc2)[nH]1` registered an IC50 of 2.7 to 23 µM.

Compound `Cc1cc(C)cc(-n2c(-c3cn(-c4ccccc4)nc3-c3cc4ccccc4oc3=O)nc(-c3ccccc3)c2-c2ccccc2)c1` showed an IC50 of 2.5 to 46 µM. With `Cc1cc2nc(-c3ccc(C(=O)NNC(=S)Nc4ccc(F)cc4)cc3)[nH]c2cc1C`, the IC50 was in the range of 35 to 297 µM.

Compound `COc1ccc(-n2c(-c3cn(-c4ccccc4)nc3-c3cc4cc(Br)ccc4oc3=O)nc(-c3ccccc3)c2-c2ccccc2)cc1` gave an IC50 of 2.5 to 46 µM. `Cc1ccc(/C=N/NC(=O)c2ccc(-c3nc4cc(C)c(C)cc4[nH]3)cc2)cc1` registered an IC50 of 8.4 to 179 µM. Same read-out and setting: the figure for `Cc1cc2nc(-c3ccc(C(=O)N/N=C/c4cccc(O)c4O)cc3)[nH]c2cc1C` is 8.4 to 9.9 µM; for `Cc1cc2nc(-c3ccc(C(=O)N/N=C/c4cc(O)c(O)c(O)c4)cc3)[nH]c2cc1C` it is 8.4 µM; for `Cc1cc2nc(-c3ccc(C(=O)NNC(=S)Nc4ccc(Cl)cc4)cc3)[nH]c2cc1C` it is 35 to 297 µM. The same measure, in the same setting: the figure for `Cc1cc2nc(-c3ccc(C(=O)N/N=C/c4ccc([N+](=O)[O-])cc4)cc3)[nH]c2cc1C` is 8.4 to 179 µM; for `Cc1cccc(NC(=S)NNC(=O)c2ccc(-c3nc4cc(C)c(C)cc4[nH]3)cc2)c1` it is 35 to 297 µM; for `Cc1cc2nc(-c3ccc(C(=O)N/N=C/c4cccnc4)cc3)[nH]c2cc1C` it is 8.4 to 179 µM. Still for that read-out and setting: the figure for `Cc1nn(-c2ccc([N+](=O)[O-])cc2)c(C)c1-c1nc(-c2ccccc2)c(-c2ccccc2)[nH]1` is 2.7 to 23 µM; for `Cc1cc2nc(-c3ccc(C(=O)N/N=C/c4ccc(Cl)cc4)cc3)[nH]c2cc1C` it is 8.4 to 179 µM; for `Cc1cc2nc(-c3ccc(C(=O)NNC(=S)Nc4ccccc4Cl)cc3)[nH]c2cc1C` it is 35 to 297 µM. `COc1ccc(O)c(/C=N/NC(=O)c2ccc(-c3nc4cc(C)c(C)cc4[nH]3)cc2)c1`: the IC50 fell in the range of 8.4 to 9.9 µM. The same measure, in the same setting: to `c1ccc(-c2nn(-c3ccccc3)cc2-c2nc(-c3ccccc3)c(-c3ccccc3)[nH]2)cc1` belongs 2.7 to 23 µM; to `O=c1oc2ccc(Br)cc2cc1-c1nn(-c2ccccc2)cc1-c1nc(-c2ccccc2)c(-c2ccccc2)n1-c1ccc(Cl)cc1`, 2.5 µM; to `COc1ccc(/C=N/NC(=O)c2ccc(-c3nc4cc(C)c(C)cc4[nH]3)cc2)cc1`, 8.4 to 179 µM. Still for that read-out and setting: to `O=c1oc2ccc(Br)cc2cc1-c1nn(-c2ccccc2)cc1-c1nc(-c2ccccc2)c(-c2ccccc2)n1-c1ccc(Br)cc1` belongs 2.5 to 46 µM; to `O=c1oc2ccccc2cc1-c1nn(-c2ccccc2)cc1-c1nc(-c2ccccc2)c(-c2ccccc2)n1-c1ccc(Cl)cc1`, 2.5 to 46 µM; to `Cc1cc2nc(-c3ccc(C(=O)N/N=C/c4ccccn4)cc3)[nH]c2cc1C`, 8.4 to 179 µM.

The compound `Cc1cc2nc(-c3ccc(C(=O)NNC(=S)Nc4ccccc4F)cc3)[nH]c2cc1C` registered an IC50 of 35 to 297 µM. As to `Cc1cc2nc(-c3ccc(C(=O)NNC(=S)Nc4cccc(F)c4)cc3)[nH]c2cc1C`, the IC50 was in the range of 35 to 297 µM.

The compound `Clc1ccc(-c2nn(-c3ccccc3)cc2-c2nc(-c3ccccc3)c(-c3ccccc3)[nH]2)cc1` had an IC50 of 2.7 to 23 µM.

In the case of `Cc1cc2nc(-c3ccc(C(=O)N/N=C/c4cc(O)ccc4O)cc3)[nH]c2cc1C`, the IC50 was 8.4 to 9.9 µM. In turn, `Cc1cc2nc(-c3ccc(C(=O)NNC(=S)Nc4ccccc4Br)cc3)[nH]c2cc1C` came in with an IC50 of 35 to 297 µM.

For the next experiment, the target named is Alpha glucosidase (Homo sapiens, UniProt O43451+P10253+P14410+Q2M2H8). Kind of experiment: Inhibition of alpha-glucosidase (unknown origin) using p-nitrophenyl-alpha-d-glucopyranoside as substrate preincubated for 5 mins followed by substrate addition measured after 5 mins. The class given is protein assay.
The compound `O=C(N/N=C/c1ccc(O)cc1O)c1cc2ccccc2oc1=O` displayed an IC50 of 1100 to 36000 nM. The same measure, in the same setting: to `O=[N+]([O-])c1ccccc1/C=N/c1nnc(-c2ccc(Cl)cc2)s1` belongs 2300 to 25000 nM. With `Nc1nnc(-c2ccc([N+](=O)[O-])cc2)s1`, the IC50 lay in the range of 2300 to 38000 nM. With `Nc1nnc(-c2cc3ccccc3cc2O)s1`, the IC50 lay in the range of 2300 to 38000 nM. Same read-out and setting: to `O=C(N/N=C/c1cccc(F)c1)c1cc2ccccc2oc1=O` belongs 1100 to 36000 nM; to `O=C(N/N=C/c1ccccn1)c1cc2ccccc2oc1=O`, 1100 to 36000 nM. On to `Nc1nnc(-c2cccc([N+](=O)[O-])c2)s1`, for which the IC50 lay within 2300 to 38000 nM. On to `CN(C)c1ccc(-c2nnc(N)s2)cc1`, for which the IC50 is 2300 to 38000 nM. The same measure, in the same setting: to `COc1ccc(Br)cc1-c1nnc(N)s1` belongs 2300 to 38000 nM; to `Nc1nnc(-c2ccccc2[N+](=O)[O-])s1`, 2300 to 38000 nM.

`COc1cc(-c2nnc(/N=C/c3ccc(O)cc3)s2)ccc1OCc1ccccc1` returned an IC50 of 2300 to 25000 nM. Consider `O=C(N/N=C/c1ccccc1[N+](=O)[O-])c1cc2ccccc2oc1=O`, for which the IC50 was 1100 to 36000 nM. In the case of `Nc1nnc(-c2ccc(O)cc2)s1`, the IC50 was determined as 2300 nM. Regarding `O=C(N/N=C/c1cccc(O)c1O)c1cc2ccccc2oc1=O`, the concentration for half-maximal inhibition (IC50) was 1100 nM. Regarding `Cc1ccccc1/C=N/NC(=O)c1cc2ccccc2oc1=O`, the IC50 lay in the range of 1100 to 36000 nM. Still for that read-out and setting: to `Oc1ccc(/C=N/c2nnc(-c3ccc(Cl)cc3)s2)cc1` belongs 2300 nM; to `O=[N+]([O-])c1ccc(/C=N/c2nnc(-c3ccc(Cl)cc3)s2)cc1`, 2300 to 25000 nM. Compound `Nc1nnc(-c2c3ccccc3cc3ccccc23)s1` came in with an IC50 of 2300 to 38000 nM. With `Nc1nnc(-c2ccc(Cl)cc2)s1`, the IC50 fell in the range of 2300 to 38000 nM.

Compound `Cc1ccc(/C=N/NC(=O)c2cc3ccccc3oc2=O)cc1` displayed an IC50 of 1100 to 36000 nM. Turning to `O=C(N/N=C/c1ccccc1F)c1cc2ccccc2oc1=O`, the concentration for half-maximal inhibition (IC50) was in the range of 1100 to 36000 nM. Still for that read-out and setting: the figure for `Clc1ccc(-c2nnc(/N=C/c3ccc(Cl)cc3Cl)s2)cc1` is 2300 to 25000 nM; for `Clc1ccc(-c2nnc(/N=C/c3ccc(OCc4ccccc4)cc3)s2)cc1` it is 2300 to 25000 nM. `COc1ccc(Br)cc1/C=N/c1nnc(-c2ccc(Cl)cc2)s1` gave an IC50 of 2300 to 25000 nM.

`Nc1nnc(-c2ccc(OCc3ccccc3)cc2)s1` yielded an IC50 of 2300 to 38000 nM. `Cc1cccc(/C=N/NC(=O)c2cc3ccccc3oc2=O)c1` showed an IC50 of 1100 to 36000 nM. The compound `COc1ccc(O)c(/C=N/NC(=O)c2cc3ccccc3oc2=O)c1` registered an IC50 of 1100 to 36000 nM.

`O=C(N/N=C/c1ccc(F)cc1)c1cc2ccccc2oc1=O` registered an IC50 of 1100 to 36000 nM.

As to `O=C(N/N=C/c1ccccc1O)c1cc2ccccc2oc1=O`, the IC50 fell in the range of 1100 to 36000 nM. As to `Nc1nnc(-c2ccc(Cl)c(OCc3ccccc3)c2)s1`, the IC50 lay within 2300 to 38000 nM.
